Results from ChEMBL document CHEMBL1268982, “Design, synthesis, and structure-activity relationship studies of N-arylsulfonyl morpholines as γ-secretase inhibitors” (Bioorg Med Chem Lett, 2010).

Assays:
[1] = target: Cytochrome P450 3A4 (Homo sapiens, UniProt P08684); assay: Inhibition of CYP3A4 after 30 mins; type: ADME
[2] = Inhibition of gamma-secretase-mediated amyloid beta-40 production
[3] = AUC (0 to 6 hrs) in rat at 10 mg/kg, po; type: ADME, organism-based; set-up: time < 6 hr, dose 10 mg/kg, route oral; conditions: plasma

Sequence of Cytochrome P450 3A4 (P08684 whole entry): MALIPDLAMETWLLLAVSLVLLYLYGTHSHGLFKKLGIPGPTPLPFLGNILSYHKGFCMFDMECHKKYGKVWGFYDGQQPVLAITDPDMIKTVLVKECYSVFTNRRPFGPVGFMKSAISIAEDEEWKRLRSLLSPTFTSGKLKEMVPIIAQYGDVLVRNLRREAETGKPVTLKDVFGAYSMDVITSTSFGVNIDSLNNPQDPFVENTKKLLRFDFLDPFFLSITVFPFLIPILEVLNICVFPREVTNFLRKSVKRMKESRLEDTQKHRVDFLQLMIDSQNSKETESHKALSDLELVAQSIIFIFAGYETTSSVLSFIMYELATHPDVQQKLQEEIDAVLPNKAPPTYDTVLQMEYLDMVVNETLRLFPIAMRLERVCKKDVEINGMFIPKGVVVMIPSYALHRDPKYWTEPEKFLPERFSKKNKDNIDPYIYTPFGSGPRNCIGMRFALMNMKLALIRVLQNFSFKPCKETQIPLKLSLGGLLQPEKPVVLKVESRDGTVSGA

SMILES	IC50 [1] [nM]	IC50 [2] [nM]	AUC(0-t) at 6 h [3] [µM·h]
CN1CCC12CCN(C(=O)OC1([C@H]3COC[C@@H](CC4CC4)N3S(=O)(=O)c3ccc(Cl)cc3)CC1)CC2	30000	2.6	0.894
CC(C)(C)[C@@H]1COC[C@H](COC(=O)N2CCC(CO)CC2)N1S(=O)(=O)c1ccc(Cl)cc1	7100	108	
CC1([C@@H]2COC[C@H](COC(=O)N3CCC(CO)CC3)N2S(=O)(=O)c2ccc(Cl)cc2)CC1	5500	131	
CC1([C@@H]2COC[C@H](COC(=O)N3CCN(C(C)(C)CO)CC3)N2S(=O)(=O)c2ccc(Cl)cc2)CC1	500	39.3	
C[C@@H]1CN(C(=O)OC2([C@H]3COC[C@@H](CC4CC4)N3S(=O)(=O)c3ccc(Cl)cc3)CC2)C[C@H](C)N1CCO	2000	11.6	1.23
CC[C@H]1CN(C(C)=O)[C@H](C)CN1C(=O)OC1([C@H]2COC[C@@H](CC3CC3)N2S(=O)(=O)c2ccc(Cl)cc2)CC1	> 30000	29.3	
O=C(OC1([C@H]2COC[C@@H](CC3CC3)N2S(=O)(=O)c2ccc(Cl)cc2)CC1)N1CC2CCC(C1)N2	800	0.8	4.58
CC(C)(C)[C@@H]1COC[C@H](COC(=O)N2CCN(C(C)(C)CO)CC2)N1S(=O)(=O)c1ccc(Cl)cc1	23800	34.7	
CC(=O)N1C2CCC1CN(C(=O)OC1([C@H]3COC[C@@H](CC4CC4)N3S(=O)(=O)c3ccc(Cl)cc3)CC1)C2	> 30000	4.4	0.013
CCNC(=O)N1C2CCC1CN(C(=O)OC1([C@H]3COC[C@@H](CC4CC4)N3S(=O)(=O)c3ccc(Cl)cc3)CC1)C2	> 30000	5.5	0.06
O=C(OC1([C@H]2COC[C@@H](CC3CC3)N2S(=O)(=O)c2ccc(Cl)cc2)CC1)N1CC2CC1CN2CCO (stereo partly specified)	3200	3.6	1.35
O=C(OC1([C@H]2COC[C@@H](CC3CC3)N2S(=O)(=O)c2ccc(Cl)cc2)CC1)N1CC2CCC(C1)N2CCO	2300	0.9	1.28
CC1([C@@H]2COC[C@H](COC(=O)N3CCC(N4CCCCC4)CC3)N2S(=O)(=O)c2ccc(Cl)cc2)CC1	1500	20.4	

More lines, now with the values ahead:

IC50 [1] [nM]	IC50 [2] [nM]	AUC(0-t) at 6 h [3] [µM·h]	SMILES
1400	5.7	1.02	CN1CCN(C(=O)OC2([C@H]3COC[C@@H](CC4CC4)N3S(=O)(=O)c3ccc(Cl)cc3)CC2)CC1=O
13800	6.5		CC(C)[C@@H]1COC[C@H](C2(OC(=O)N3CCC(CO)CC3)CC2)N1S(=O)(=O)c1ccc(Cl)cc1
> 30000	7.4	0.037	O=C1CC2(CCN(C(=O)OC3([C@H]4COC[C@@H](CC5CC5)N4S(=O)(=O)c4ccc(Cl)cc4)CC3)CC2)N1
6400	9.3	1.12	CC(C)[C@@H]1COC[C@H](C2(OC(=O)N3CC4CNCC4C3)CC2)N1S(=O)(=O)c1ccc(Cl)cc1 (stereo partly specified)
300	14.5	3.93	CC(C)[C@@H]1COC[C@H](C2(OC(=O)N3CCNCC3)CC2)N1S(=O)(=O)c1ccc(Cl)cc1
13600	18.9	0.036	CC(C)[C@@H]1COC[C@H](C2(OC(=O)N3CC[C@@H](O)C3)CC2)N1S(=O)(=O)c1ccc(Cl)cc1
11300	3.1	1.34	O=C(OC1([C@H]2COC[C@@H](CC3CC3)N2S(=O)(=O)c2ccc(Cl)cc2)CC1)N1CCC2(CCN2)CC1
500	2	4.97	CC(C)[C@@H]1COC[C@H](C2(OC(=O)N3CC4CCC(C3)N4)CC2)N1S(=O)(=O)c1ccc(Cl)cc1
> 30000	27.6	0.077	CC(C)(CO)N1CCN(C(=O)OC2([C@H]3COC[C@@H](CC4CC4)N3S(=O)(=O)c3ccc(Cl)cc3)CC2)CC1
30000	17		CC(C)[C@@H]1COC[C@H](C2(OC(=O)N3CC[C@H](O)C3)CC2)N1S(=O)(=O)c1ccc(Cl)cc1
